In US5776948A, “Fluoroquinoline derivative” (Chugai Seiyaku Kabushiki Kaisha, priority 1992, dated 1998):
Converted amounts (≈) assume the structure as drawn. Where two headings read alike, the source gives them in different places.

Assays:
[1] = tested on: mouse lymphatic leukemia cell line L1210; test: Cytotoxicity test (MTT method); assay type: cell-based
Experimental: The 50% inhibitory concentrations (IC50) of the test compounds on a mouse lymphatic leukemia cell line L1210 were determined by the MTT [3-(4,5-dimethylthiazol-2-yl)-2,5-diphenyltetrazolium bromide] method.
Namely, 2×10^4 L1210 cells were incubated in 200 μl of a culture medium (RPMI-1640 medium containing 10% of fetal bovine serum) containing a two-fold serial dilution of a test compound at 37° C. for a day. Four hours before the completion of the incubation, 10 μl of a 5 mg/ml solution of MTT was added. When the incubation was completed, the culture medium was eliminated by sucking and the insoluble formazan, which had been reduced by the mitochondrial dehydrogenase of the cells, was extracted with 100 μl of dimethylsulfoxide. Then the absorbance was measured at 550 nm. The cell propagation ratio was expressed in the ratio of the formazan formation of the test lot to that of the control lot wherein cells were incubated in a medium free from any test compound. Then IC50 was determined by the probit method.

[2] = Phototoxicity test (UVA irradiation, MTT method); assay type: cell-based; parameters: dose or concentration left out as unconfirmed; details: mouse, l1210 cells; L1210, UVA 0.5 J, 2 days incubation; read-out: Phototoxicity (%; propagation ratio under 0.5 J-irradiation to non-irradiation lot)
Experimental: The phototoxicity was determined by enhancing the cytotoxicity of a test compound on L1210 via UV irradiation. […] After the irradiation, 100 μl of a culture medium was added and the cells were incubated at 37° C. for 2 days.

[3] = background art; cited from earlier work
[4] = tested on: A. calcoaceticus IFO 12552; test: Antibacterial activity test, MIC by agar plate dilution method; assay type: cell-based; details: unit assumed
Experimental: (§1) The minimum inhibitory concentrations (MIC) of the test compounds were measured by the publicly known agar plate dilution method.

A. faecalis IFO 13111 = test: as above; assay type: cell-based; details: unit assumed
Experimental: as §1

B. cereus IFO 13494 = test: as above; assay type: cell-based; details: unit assumed
Experimental: as §1

B. subtilis ATCC 6633 = test: as above; assay type: cell-based; details: unit assumed
Experimental: as §1

C. freundii IFO 12681 = test: as above; assay type: cell-based; details: unit assumed
Experimental: as §1

CSJ 1922 = test: as above; assay type: cell-based; details: CSJ 1922 (listed under E. coli); unit assumed
Experimental: as §1

E. aeruginosa IFO 13534 = test: as above; assay type: cell-based; details: unit assumed
Experimental: as §1

E. cloacae IFO 3320 = test: as above; assay type: cell-based; details: unit assumed
Experimental: as §1

E. coli NIHJ JC-2 = test: as above; assay type: cell-based; details: unit assumed
Experimental: as §1

JU-5 = test: as above; assay type: cell-based; details: JU-5 (listed under S. aureus); unit assumed
Experimental: as §1

K. pneumoniae B-54 = test: as above; assay type: cell-based; details: unit assumed
Experimental: as §1

M. morganii IFO 3848 = test: as above; assay type: cell-based; details: unit assumed
Experimental: as §1

MRSA RN-10 = test: as above; assay type: cell-based; details: unit assumed
Experimental: as §1

P. aeruginosa GNB-139 = test: as above; assay type: cell-based; details: unit assumed
Experimental: as §1

P. mirabilis IFO 13300 = test: as above; assay type: cell-based; details: unit assumed
Experimental: as §1

P. rettgeri IFO 13501 = test: as above; assay type: cell-based; details: unit assumed
Experimental: as §1

P. vulgaris IFO 3851 = test: as above; assay type: cell-based; details: unit assumed
Experimental: as §1

S. aureus 209P = test: as above; assay type: cell-based; details: unit assumed
Experimental: as §1

S. epidermidis IFO 12993 = test: as above; assay type: cell-based; details: unit assumed
Experimental: as §1

S. marcescens IFO 12648 = test: as above; assay type: cell-based; details: unit assumed
Experimental: as §1

S. typhimurium LT-2 = test: as above; assay type: cell-based; details: unit assumed
Experimental: as §1

TO-101 = test: as above; assay type: cell-based; details: TO-101 (listed under S. marcescens); unit assumed
Experimental: as §1

X. maltophilia IFO 14161 = test: as above; assay type: cell-based; details: unit assumed
Experimental: as §1

[5] = L1210 cells, 37° C., a day, MTT, read-out: IC50

| MIC [4] [µg/mL] | MIC (A. faecalis IFO 13111) [µg/mL] | MIC (B. cereus IFO 13494) [µg/mL] | MIC (B. subtilis ATCC 6633) [µg/mL] | MIC (C. freundii IFO 12681) [µg/mL] | MIC (CSJ 1922) [µg/mL] | MIC (E. aeruginosa IFO 13534) [µg/mL] | MIC (E. cloacae IFO 3320) [µg/mL] | MIC (E. coli NIHJ JC-2) [µg/mL] | MIC (JU-5) [µg/mL] | MIC (K. pneumoniae B-54) [µg/mL] | MIC (M. morganii IFO 3848) [µg/mL] | MIC (MRSA RN-10) [µg/mL] | MIC (P. aeruginosa GNB-139) [µg/mL] | MIC (P. mirabilis IFO 13300) [µg/mL] | MIC (P. rettgeri IFO 13501) [µg/mL] | MIC (P. vulgaris IFO 3851) [µg/mL] | MIC (S. aureus 209P) [µg/mL] | MIC (S. epidermidis IFO 12993) [µg/mL] | SMILES | IC50 [1, 5] [µg/mL] | other results |
| --- | --- | --- | --- | --- | --- | --- | --- | --- | --- | --- | --- | --- | --- | --- | --- | --- | --- | --- | --- | --- | --- |
| – | – | – | – | – | – | – | – | – | – | – | – | – | – | – | – | – | – | – | CC1COc2c(N3CCN(C)CC3)c(F)cc3c(=O)c(C(=O)O)cn1c23 (stereo not shown) [Ofloxacin, reference compound] | 195 (≈ 540 µM) | viability at 48 h [2]: 69% |
| – | – | – | – | – | – | – | – | – | – | – | – | – | – | – | – | – | – | – | CCn1cc(C(=O)O)c(=O)c2cc(F)c(N3CCNCC3)nc21 [enoxacin] | – | solubility under physiological conditions [3]: poor solubility |
| 0.78 | 1.56 | 0.78 | 0.1 | 0.2 | 0.2 | 0.39 | 0.1 | 0.39 | 0.39 | 0.2 | 0.2 | 1.56 | 3.13 | 0.2 | 0.2 | 0.2 | 1.56 | 3.13 | COc1c(C2(N)CCCC2)c(F)cc2c(=O)c(C(=O)O)cn(C3CC3)c12.Cl [Ex. 16, 7-(1-aminocyclopentyl)-1-cyclopropyl-6-fluoro-8-methoxy-1,4-dihydro-4-oxo-3-quinolinecarboxylic acid hydrochloride] | 399 | MIC (S. marcescens IFO 12648): 0.39 µg/mL; MIC (S. typhimurium LT-2): 0.39 µg/mL; MIC (TO-101): 0.39 µg/mL; MIC (X. maltophilia IFO 14161): 0.78 µg/mL |
| – | – | – | – | – | – | – | – | – | – | – | – | – | – | – | – | – | – | – | COc1c(C2(N)CCCCC2)c(F)cc2c(=O)c(C(=O)O)cn(C3CC3)c12.Cl [Ex. 17, 7-(1-aminocyclohexyl)-1-cyclopropyl-6-fluoro-8-methoxy-1,4-dihydro-4-oxo-3-quinolinecarboxylic acid hydrochloride] | – | IC50 ([1]; L1210): 399 µg/mL |
| – | – | – | – | – | – | – | – | – | – | – | – | – | – | – | – | – | – | – | COc1c(C2(N)CCOCC2)c(F)cc2c(=O)c(C(=O)O)cn(C3CC3)c12.Cl [Ex. 18, 7-(4-amino-2,3,5,6-tetrahydropyran-4-yl)-1-cyclopropyl-6-fluoro-8-methoxy-1,4-dihydro-4-oxo-3-quinolinecarboxylic acid hydrochloride] | > 800 | – |
| – | – | – | – | – | – | – | – | – | – | – | – | – | – | – | – | – | – | – | CCn1cc(C(=O)O)c(=O)c2cc(F)c(N3CCNCC3)cc21 [norfloxacin] | – | solubility under physiological conditions [3]: poor solubility |
| – | – | – | – | – | – | – | – | – | – | – | – | – | – | – | – | – | – | – | O=C(O)c1cn(C2CC2)c2cc(N3CCNCC3)c(F)cc2c1=O [Ciprofloxacin, reference compound] | 77 (≈ 232 µM) | – |
| 1.56 | 1.56 | 0.78 | 0.1 | 0.2 | 0.2 | 0.39 | 0.1 | 0.2 | 0.39 | 0.2 | 0.1 | 0.78 | 3.13 | 0.39 | 0.39 | 0.2 | 0.78 | 1.56 | COc1c(C2(N)CCC2)c(F)cc2c(=O)c(C(=O)O)cn(C3CC3)c12.Cl [Ex. 23, 7-(1-aminocyclobutyl)-1-cyclopropyl-6-fluoro-8-methoxy-1,4-dihydro-4-oxo-3-quinolinecarboxylic acid hydrochloride] | – | MIC (S. marcescens IFO 12648): 0.78 µg/mL; MIC (S. typhimurium LT-2): 0.39 µg/mL; MIC (TO-101): 0.39 µg/mL; MIC (X. maltophilia IFO 14161): 0.78 µg/mL |
| 0.78 | 1.56 | 0.2 | 0.05 | 0.1 | 0.1 | 0.2 | 0.025 | 0.2 | 0.2 | 0.1 | 0.05 | 0.39 | 0.78 | 0.05 | 0.2 | 0.1 | 0.39 | 0.78 | COc1c(C2(N)CC2)c(F)cc2c(=O)c(C(=O)O)cn(C3CC3)c12.Cl [Ex. 26, 7-(1-aminocyclopropyl)-1-cyclopropyl-6-fluoro-8-methoxy-1,4-dihydro-4-oxo-3-quinolinecarboxylic acid hydrochloride] | 323 | MIC (S. marcescens IFO 12648): 0.2 µg/mL; MIC (S. typhimurium LT-2): 0.2 µg/mL; MIC (TO-101): 0.2 µg/mL; MIC (X. maltophilia IFO 14161): 0.78 µg/mL; viability at 48 h [2]: > 100% |
